Experimental data from US9216187B2, “Soyasapogenol composition” (J-OIL MILLS, INC., priority 2011, dated 2015).

Experiment: Evaluation of absorption of soyasapogenol composition, blood soyasapogenol B at 1 to 12 hours and AUC (Examples 3 to 4)
Format: in vivo
Details: rat, plasma, oral, male SD rats, single dose with feeding needle, 100 μmol/kg body weight in terms of saponin aglycone
Method: To each of the obtained plasma, 0.2 M Na acetate buffer solution (pH 5.5) in an amount same as that of the plasma was added. Subsequently, 3000 units of β-glucuronidase (product name: H-2, product of Sigma-Aldrich, Co. LLC) were added, and an enzyme reaction was allowed at 37° C. for 12 hours. After termination of the reaction, 3 ml of a mixture liquid of methanol:acetonitrile (1:1) and internal standard formononetin (product of Sigma-Aldrich, Co. LLC) were added to the enzyme treatment solution, followed by centrifugation, and then a supernatant was collected. An operation of adding 3 ml of the mixture liquid of methanol:acetonitrile (1:1) to a residue and performing centrifugation was repeated twice, and a supernatant was collected after each of the operations. The collected supernatants were mixed and subjected to drying under reduced pressure using a rotary evaporator.
8-week-old male SD rats (Charles River Laboratories Japan, Inc.) were divided into groups so that one group consists of 4 rats, and each of the compositions of Examples 3 and 4 and Comparative Example 1 was suspended into a 0.5% CMC solution, followed by a single dose administration of the suspension in an equivalent amount (100 μmol/kg body weight) in terms of saponin aglycone to each of the rats with a feeding needle. Blood sampling was conducted at 1, 3, 8 and 12 hours after the administration, and plasma was obtained from each of the blood samples. Each of the obtained plasma was subjected to the pre-treatment and the HPLC-MS analysis in the same manner as in Example 1 to examine the soyasapogenol B concentration in the blood. The blood soyasapogenol B concentration at 1 to 12 hours after the administration and AUCs (areas under curve of the blood concentration) are shown in Table 3.

AUC (100 umol/kg, 1 to 12 hours, read-out: AUC (area under curve of the blood soyasapogenol B concentration)): 2910 ng·h/mL | concentration at 1 h (1 hour, read-out: Blood Soyasapogenol B Concentration 1 hour after): 317 ng/mL | concentration at 3 h (3 hours, read-out: Blood Soyasapogenol B Concentration 3 hours after): 280 ng/mL | concentration at 8 h (8 hours, read-out: Blood Soyasapogenol B Concentration 8 hours after): 293 ng/mL | concentration at 12 h (12 hours, read-out: Blood Soyasapogenol B Concentration 12 hours after): 68.1 ng/mL
SMILES: CC1(C)C[C@@H](O)[C@]2(C)CC[C@]3(C)C(=CC[C@@H]4[C@@]5(C)CC[C@H](O)[C@](C)(CO)[C@@H]5CC[C@]43C)[C@@H]2C1 [Comp. Ex. 1, soyasapogenol B]
